# Experiments:
# Format in all cases: in vivo
# corn (Zea mays) [1] = test: Test A postemergence application, visual injury rating 0-100; conditions: Postemergence, 10 days, 0 is no effect, 100 is complete control
# Procedure, shortened: (§1)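 Visual injury ratings (0, no effect; 100, complete control) were assigned relative to untreated plants 10 days after treatment. Test chemicals, formulated with a surfactant-containing non-phytotoxic solvent, were applied in loam-sand soil either as a directed soil spray before emergence or to emerged plants, and plants were kept in a greenhouse.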
# [2] = system: barnyardgrass (Echinochloa crus-galli); test: as above; conditions: Postemergence, 10 days, 0 is no effect, 100 is complete control
# Procedure, shortened: as §1
# [3] = system: galium (catchweed bedstraw, Galium aparine); test: as above; conditions: Postemergence, 10 days, 0 is no effect, 100 is complete control
# Procedure, shortened: as §1
# [4] = system: ryegrass, Italian (italian ryegrass, Lolium multiflorum); test: as above; conditions: Postemergence, 10 days, 0 is no effect, 100 is complete control
# Procedure, shortened: as §1
# soybean (Glycine max) [5] = test: as above; conditions: Postemergence, 10 days, 0 is no effect, 100 is complete control
# Procedure, shortened: as §1
# [6] = system: palmer (palmer amaranth, palmer pigweed, Amaranthus palmeri); test: as above; conditions: Postemergence, 10 days, 0 is no effect, 100 is complete control
# Procedure, shortened: as §1
# [7] = system: wheat (Triticum aestivum); test: as above; conditions: Postemergence, 10 days, 0 is no effect, 100 is complete control
# Procedure, shortened: as §1
# [8] = system: oat, wild (wild oat, Avena fatua); test: as above; conditions: Postemergence, 10 days, 0 is no effect, 100 is complete control
# Procedure, shortened: as §1
# [9] = system: ragweed (common ragweed, Ambrosia artemisiifolia); test: as above; conditions: Postemergence, 10 days, 0 is no effect, 100 is complete control
# Procedure, shortened: as §1
# [10] = system: blackgrass (Alopecurus myosuroides); test: as above; conditions: Postemergence, 10 days, 0 is no effect, 100 is complete control
# Procedure, shortened: as §1
# [11] = system: horseweed (Erigeron canadensis); test: as above; conditions: Postemergence, 10 days, 0 is no effect, 100 is complete control
# Procedure, shortened: as §1
# [12] = system: green foxtail (Setaria viridis); test: as above; conditions: Postemergence, 10 days, 0 is no effect, 100 is complete control
# Procedure, shortened: as §1
# kochia (Bassia scoparia) [13] = test: as above; conditions: Postemergence, 10 days, 0 is no effect, 100 is complete control
# Procedure, shortened: as §1
# corn (Zea mays) [14] = test: Test A preemergence soil spray, visual injury rating 0-100; conditions: 10 days, 0 = no effect, 100 = complete control
# Procedure, shortened: as §1
# [15] = system: barnyardgrass (Echinochloa crus-galli); test: as above; conditions: 10 days, 0 = no effect, 100 = complete control
# Procedure, shortened: as §1
# [16] = system: ryegrass, Italian (italian ryegrass, Lolium multiflorum); test: as above; conditions: 10 days, 0 = no effect, 100 = complete control
# Procedure, shortened: as §1
# soybean (Glycine max) [17] = test: as above; conditions: 10 days, 0 = no effect, 100 = complete control
# Procedure, shortened: as §1
# [18] = system: palmer (palmer amaranth, palmer pigweed, Amaranthus palmeri); test: as above; conditions: 10 days, 0 = no effect, 100 = complete control
# Procedure, shortened: as §1
# [19] = system: wheat (Triticum aestivum); test: as above; conditions: 10 days, 0 = no effect, 100 = complete control
# Procedure, shortened: as §1
# [20] = system: oat, wild (wild oat, Avena fatua); test: as above; conditions: 10 days, 0 = no effect, 100 = complete control
# Procedure, shortened: as §1
# [21] = system: ragweed (common ragweed, Ambrosia artemisiifolia); test: as above; conditions: 10 days, 0 = no effect, 100 = complete control
# Procedure, shortened: as §1
# [22] = system: blackgrass (Alopecurus myosuroides); test: as above; conditions: 10 days, 0 = no effect, 100 = complete control
# Procedure, shortened: as §1
# [23] = system: green foxtail (Setaria viridis); test: as above; conditions: 10 days, 0 = no effect, 100 = complete control
# Procedure, shortened: as §1
# kochia (Bassia scoparia) [24] = test: as above; conditions: 10 days, 0 = no effect, 100 = complete control
# Procedure, shortened: as §1
# rice (Oryza sativa) = test: Test B flooded paddy test, visual plant response rating 0-100; conditions: 250 g ai/ha, Flood, applied to paddy water, evaluated after 13 days
# Procedure, shortened: (§2)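 2-leaf plants; flood 3 cm over soil; compound dosed into paddy water; depth kept constant; greenhouse 13 d; visual scoring vs controls. Dash = no result.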
# [25] = system: ducksalad (Heteranthera limosa); test: as above; conditions: 250 g ai/ha, Flood, applied to paddy water, evaluated after 13 days
# Procedure, shortened: as §2
# [26] = system: sedge, umbrella (small-flower umbrella sedge, Cyperus difformis); test: as above; conditions: 250 g ai/ha, Flood, applied to paddy water, evaluated after 13 days
# Procedure, shortened: as §2
# [27] = system: barnyardgrass (Echinochloa crusgalli); test: as above; conditions: 250 g ai/ha, Flood, applied to paddy water, evaluated after 13 days
# Procedure, shortened: as §2
compound,measurement,setting,value
CC1(C(=O)NC2C=CC(C(=O)OCCS(C)(=O)=O)C2)CN(c2cc(Cl)cc(Cl)c2)C(=O)O1 (stereo not shown) [Compound 46],Corn plant response rating (0 to 100 scale),corn (Zea mays) [1]; 125 g ai/ha,100
same,Corn plant response rating (0 to 100 scale),corn (Zea mays) [1]; 500 g ai/ha,100
same,Barnyardgrass plant response rating (0 to 100 scale),[2]; 125 g ai/ha,100
same,Barnyardgrass plant response rating (0 to 100 scale),[2]; 500 g ai/ha,100
same,Galium plant response rating (0 to 100 scale),[3]; 125 g ai/ha,80
same,Galium plant response rating (0 to 100 scale),[3]; 500 g ai/ha,70
same,"Ryegrass, Italian plant response rating (0 to 100 scale)",[4]; 125 g ai/ha,70
same,"Ryegrass, Italian plant response rating (0 to 100 scale)",[4]; 500 g ai/ha,70
same,Soybean plant response rating (0 to 100 scale),soybean (Glycine max) [5]; 125 g ai/ha,80
same,Soybean plant response rating (0 to 100 scale),soybean (Glycine max) [5]; 500 g ai/ha,90
same,"Amaranth, Palmer / Pigweed, Palmer plant response rating (0 to 100 scale)",[6]; 125 g ai/ha,90
same,"Amaranth, Palmer / Pigweed, Palmer plant response rating (0 to 100 scale)",[6]; 500 g ai/ha,90
same,Wheat plant response rating (0 to 100 scale),[7]; 125 g ai/ha,90
same,Wheat plant response rating (0 to 100 scale),[7]; 500 g ai/ha,90
same,"Oat, Wild plant response rating (0 to 100 scale)",[8]; 125 g ai/ha,80
same,"Oat, Wild plant response rating (0 to 100 scale)",[8]; 500 g ai/ha,90
same,Ragweed plant response rating (0 to 100 scale),[9]; 125 g ai/ha,60
same,Ragweed plant response rating (0 to 100 scale),[9]; 500 g ai/ha,80
same,Blackgrass plant response rating (0 to 100 scale),[10]; 125 g ai/ha,100
same,Blackgrass plant response rating (0 to 100 scale),[10]; 500 g ai/ha,100
same,Horseweed plant response rating (0 to 100 scale),[11]; 125 g ai/ha,80
same,Horseweed plant response rating (0 to 100 scale),[11]; 500 g ai/ha,80
same,"Foxtail, Green plant response rating (0 to 100 scale)",[12]; 125 g ai/ha,80
same,"Foxtail, Green plant response rating (0 to 100 scale)",[12]; 500 g ai/ha,90
same,Kochia plant response rating (0 to 100 scale),kochia (Bassia scoparia) [13]; 125 g ai/ha,80
same,Kochia plant response rating (0 to 100 scale),kochia (Bassia scoparia) [13]; 500 g ai/ha,80
same,Corn plant response rating (0 to 100 scale),corn (Zea mays) [14]; 125 g ai/ha,0
same,Corn plant response rating (0 to 100 scale),corn (Zea mays) [14]; 500 g ai/ha,90
same,Barnyardgrass plant response rating (0 to 100 scale),[15]; 125 g ai/ha,80
same,Barnyardgrass plant response rating (0 to 100 scale),[15]; 500 g ai/ha,100
same,"Ryegrass, Italian plant response rating (0 to 100 scale)",[16]; 125 g ai/ha,80
same,"Ryegrass, Italian plant response rating (0 to 100 scale)",[16]; 500 g ai/ha,90
same,Soybean plant response rating (0 to 100 scale),soybean (Glycine max) [17]; 125 g ai/ha,10
same,Soybean plant response rating (0 to 100 scale),soybean (Glycine max) [17]; 500 g ai/ha,60
same,"Amaranth, Palmer plant response rating (0 to 100 scale)",[18]; 125 g ai/ha,80
same,"Amaranth, Palmer plant response rating (0 to 100 scale)",[18]; 500 g ai/ha,100
same,Wheat plant response rating (0 to 100 scale),[19]; 125 g ai/ha,70
same,Wheat plant response rating (0 to 100 scale),[19]; 500 g ai/ha,90
same,"Oat, Wild plant response rating (0 to 100 scale)",[20]; 125 g ai/ha,70
same,"Oat, Wild plant response rating (0 to 100 scale)",[20]; 500 g ai/ha,90
same,Ragweed plant response rating (0 to 100 scale),[21]; 125 g ai/ha,30
same,Ragweed plant response rating (0 to 100 scale),[21]; 500 g ai/ha,70
same,Blackgrass plant response rating (0 to 100 scale),[22]; 125 g ai/ha,80
same,Blackgrass plant response rating (0 to 100 scale),[22]; 500 g ai/ha,90
same,"Foxtail, Green plant response rating (0 to 100 scale)",[23]; 125 g ai/ha,0
same,"Foxtail, Green plant response rating (0 to 100 scale)",[23]; 500 g ai/ha,0
same,Kochia plant response rating (0 to 100 scale),kochia (Bassia scoparia) [24]; 125 g ai/ha,60
same,Kochia plant response rating (0 to 100 scale),kochia (Bassia scoparia) [24]; 500 g ai/ha,90
same,"Plant response rating, Rice (0 to 100 scale, 0 is no effect and 100 is complete control)",rice (Oryza sativa),10
same,"Plant response rating, Ducksalad (0 to 100 scale, 0 is no effect and 100 is complete control)",[25],90
same,"Plant response rating, Sedge, Umbrella (0 to 100 scale, 0 is no effect and 100 is complete control)",[26],95
same,"Plant response rating, Barnyardgrass (0 to 100 scale, 0 is no effect and 100 is complete control)",[27],70
